{"source": "patent EP2386565A2", "about": "“Compounds and methods to inhibit or augment an inflammatory response” (Cambridge Enterprise Ltd., priority 1999, dated 2000)", "key": {"[1]": {"target": "T1, Duffy Antigen Receptor for Chemokines (DARC) (Homo sapiens, UniProt Q16570)", "T1 sequence (Q16570 1-336)": "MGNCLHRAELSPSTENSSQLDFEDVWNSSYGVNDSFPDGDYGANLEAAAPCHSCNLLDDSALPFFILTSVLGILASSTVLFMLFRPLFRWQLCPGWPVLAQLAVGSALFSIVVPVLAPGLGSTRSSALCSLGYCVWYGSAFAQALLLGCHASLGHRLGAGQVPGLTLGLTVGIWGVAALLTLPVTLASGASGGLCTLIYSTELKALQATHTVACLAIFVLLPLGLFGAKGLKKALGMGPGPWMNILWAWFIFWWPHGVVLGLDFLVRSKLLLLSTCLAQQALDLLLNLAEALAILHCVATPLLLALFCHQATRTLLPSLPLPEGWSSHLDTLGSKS", "assay": "DARC binding: competition with 125I-MCP-1 on red blood cells", "conditions": "for DARC binding (µM): ns = not significantly different from control, >100 = not determined"}, "[2]": {"test_system": "MCP-1 induced THP-1 migration", "assay": "THP-1 trans-well migration assay, MCP-1 as chemoattractant", "assay_type": "cell-based, human", "protocol": "(§1) To determine whether an agent inhibits a chemokine-induced activity, such as macrophage recruitment, varying amounts of the agent are mixed with cells in the presence of a known chemoattractant. For example, a range of known concentrations of an agent, e.g., a chemokine peptide, is incubated with a defined number (e.g., 10^4 - […]) of human THP-1 monocyte cells in individual wells of the top compartment of a trans-well plate. Chemokine (such as MCP-1, MIP1α, IL8 or SDF-1α), at a concentration known to cause significant migration of THP-1 cells in the trans-well migration assay, is placed in the lower compartment (Figure 1). Cells are then incubated at 37°C for a period sufficient to allow migration, e.g., 4 hours. After incubation, the cells are gently removed from the top of the filter with a pipette, 20 µl of 20 mM EDTA in simple PBS is added into each top well, and incubated for 20 minutes at 4°C. The filter is carefully flushed with media using a gentle flow, and removed. A standard curve consisting of a two-fold dilution series of THP-1 cells (in 29 µl) is prepared to accurately quantify the number of cells that have migrated. Migrated cells are stained with 3 µl of MTT stock dye solution which is added directly into each well (5 mg/ml in RPMI-1640 without phenol red, Sigma Chemical Co.) and incubated at 37°C for 4 hours. The media is carefully aspirated from each well, and the converted dye is solubilized by 20 µl of DMSO. Absorbance of converted dye is measured at a wavelength of 595 nm using an ELISA plate reader. The number of migrated cells in each well is then determined by interpolation of the standard curve (see also Imai et al.,J. Biol. Chem., 272, 15036 (1997)).\nAny method suitable for counting cells can be used, for example, counting with a hemocytometer, incubation of the cells with MTT (see above), or FACS analysis. A negative control assay is also performed, using TGF-β or another non-chemokine chemoattractant (e.g., IL1β or TNFα). To assess whether the agent is cytotoxic, the same concentrations of agent are incubated with THP-1 cells. Agents which 1) are not cytotoxic at levels which inhibit migration, 2) are ineffective at inhibiting the negative control-induced migration, and 3) reduce or inhibit chemokine-induced THP-1 migration, are agents which fall within the scope of the invention.\nFor this assay, THP-1 cells were maintained at a density of 4 × 10^5 cells per ml in RPMI-1640 supplemented with 10% fetal calf serum + 20 µM 2-mercaptoethanol. Chemotaxis was induced in a 96-well disposable chemotaxis chamber fitted with a 5 µM polycarbonate filter (PVP free, ChemoTX, Neuroprobe Inc., Cabin John). […] The framed filter was aligned with the holes in the corner of the filter frame and placed over the wells.\n(§2) Five × 10^4 THP-1 cells in 25 µl of RPMI-1640 were added to the upper compartment. Peptides were dissolved in Milli Q water and then serially diluted in culture medium. In most cases, the serially diluted peptides were added to the upper compartment of the chemotaxis chamber. The chamber was incubated at 37°C in a humidified atmosphere of 5% CO2 for 4 hours.\nAfter incubation, the cells were gently removed from the top of the filter with a pipette, 20 µl of 20 mM EDTA in PBS was added into each top well, and the mixture was incubated for 20 minutes at 4°C. The filter was then carefully flushed with media using a gentle flow, and removed. A standard curve was prepared to accurately quantify the number of THP-1 cells that had migrated. The curve was based on a two-fold dilution series of THP-1 cells (top standard 100,000 cells in 29 µl). Cells which had migrated, and in separate wells, the cells in the standards, were stained with 3 µl of MTT stock solution which was added directly into each well (5 mg/ml in RPMI 1640 without phenol red, Sigma Chemical Co.) and incubated at 37°C for 4 hours. The media was carefully aspirated from each well, and the converted dye was solubilized by 20 µl of DMSO. […]"}, "[3]": {"test_system": "MIP1α induced THP-1 migration", "assay": "THP-1 trans-well migration assay, MIP1α as chemoattractant", "assay_type": "cell-based, human", "conditions": "inhibition of THP-1 migration; n.s./ns = not statistically significant", "protocol": "as §1\n(§3) For this assay, THP-1 cells were maintained at a density of 4 × 10^5 cells per ml in RPMI-1640 supplemented with 10% fetal calf serum + 20 µM 2-mercaptoethanol. Chemotaxis was induced in a 96-well disposable chemotaxis chamber fitted with a 5 µM polycarbonate filter (PVP free, ChemoTX, Neuroprobe Inc., Cabin John). Twenty-nine µl of chemoattractant (recombinant human chemokine; 50 ng/ml, i.e., 5.9 nM) or control (100 ng/ml TGFβ) was added to the lower compartment of each well. The framed filter was aligned with the holes in the corner of the filter frame and placed over the wells.\nas §2\n(§4) After incubation, the cells were gently removed from the top of the filter with a pipette, 20 µl of 20 mM EDTA in PBS was added into each top well, and the mixture was incubated for 20 minutes at 4°C. The filter was then carefully flushed with media using a gentle flow, and removed. A standard curve was prepared to accurately quantify the number of THP-1 cells that had migrated. The curve was based on a two-fold dilution series of THP-1 cells (top standard 100,000 cells in 29 µl). Cells which had migrated, and in separate wells, the cells in the standards, were stained with 3 µl of MTT stock solution which was added directly into each well (5 mg/ml in RPMI 1640 without phenol red, Sigma Chemical Co.) and incubated at 37°C for 4 hours. The media was carefully aspirated from each well, and the converted dye was solubilized by 20 µl of DMSO. Absorbance of converted dye was measured at a wavelength of 595 nm using an ELISA plate reader. The number of cells that had migrated in each well was determined by interpolation of the standard curve.\n(§5) To investigate the receptor specificity of peptide 3 inhibition, the ED50 was determined for peptide 3(1-12)[MCP-1] (SEQ ID NO:1) inhibition of THP-1 migration induced by chemokines which signal through different receptors than MCP-1 receptors. […]"}, "[4]": {"test_system": "SDF-1α induced THP-1 migration", "assay": "THP-1 trans-well migration assay, SDF-1α as chemoattractant", "assay_type": "cell-based, human", "conditions": "inhibition of THP-1 migration; n.s./ns = not statistically significant", "protocol": "as §1, §3, §2, §4, §5"}, "[5]": {"test_system": "gp120", "conditions": "ns = not significant; >100 = ED50 not determined", "protocol": "Binding assays. Cells (either Jurkat T-cells or THP-1 cells) were grown in RPMI 1640 medium supplemented with 10% fetal calf serum, 2 mM glutamine, 20 µM β-mercaptoethanol, 100 U/ml penicillin and 100 µg/ml streptomycin and maintained between 2 × 10^5 and 1 × 10^6 cells/ml. Prior to performing a binding assay, cells were spun out (100 × g; 4 minutes) and washed 3 times in ice-cold PBS. A volume of cell suspension in PBS containing 10^6 cells (for Jurkat cells) or 4 × 10^5 cells (for THP-1 cells) was pipetted into each well of a V-bottom 96-well plate (Gibco BRL) and spun out (100 x g; 4 minutes). Triplicate wells were then resuspended in 100 µl binding medium (PBS pH 7.2 containing 0.1% fatty acid-free bovine serum albumin (BSA)) containing labeled peptide in the presence or absence of various concentrations of unlabeled peptide. The plate was then incubated on ice for 90 minutes. Cells were washed 3 times with 380 µl of ice-cold PBS, spinning out the cells each time (100 × g; 4 minutes), and resuspended in 100 µl binding medium containing streptavidin-peroxidase (Amersham International) at 1:1000 dilution. Cells were incubated for a further 15 minutes on ice to allow labeling of any bound biotinylated peptide, then washed 4 times as above. Cells were then incubated with 200 µl TMB substrate (K-Blue, Bionostics) for 20 minutes at room temperature, and the reaction stopped by addition of 50 µl 2 M HCl. The plate was spun (3,000 × g; 3 minutes) and 200 µl of the colored product was transferred to an empty 96-well ELISA plate and the absorbance at 450 nm determined. For each assay, the absorbance of a blank reaction (no peptide added) was subtracted from all readings before further analysis.\nBinding experiments with labeled peptide 2 were performed with 10 nM labeled peptide in each reaction."}, "[6]": {"test_system": "chemokine-induced THP-1 migration", "assay": "THP-1 trans-well migration assay, several chemokines together (averages, selectivity, pan-chemokine statements)", "assay_type": "cell-based, human", "conditions": "average inhibitory ED50 for THP-1 migration induced by each of the chemokines", "protocol": "To determine whether an agent inhibits a chemokine-induced activity, such as macrophage recruitment, varying amounts of the agent are mixed with cells in the presence of a known chemoattractant. […] Chemokine (such as MCP-1, MIP1α, IL8 or SDF-1α), at a concentration known to cause significant migration of THP-1 cells in the trans-well migration assay, is placed in the lower compartment (Figure 1). Cells are then incubated at 37°C for a period sufficient to allow migration, e.g., 4 hours. After incubation, the cells are gently removed from the top of the filter with a pipette, 20 µl of 20 mM EDTA in simple PBS is added into each top well, and incubated for 20 minutes at 4°C. The filter is carefully flushed with media using a gentle flow, and removed. […] The media is carefully aspirated from each well, and the converted dye is solubilized by 20 µl of DMSO.\nChemotaxis was induced in a 96-well disposable chemotaxis chamber fitted with a 5 µM polycarbonate filter (PVP free, ChemoTX, Neuroprobe Inc., Cabin John). […] The framed filter was aligned with the holes in the corner of the filter frame and placed over the wells.\nPeptides were dissolved in Milli Q water and then serially diluted in culture medium. In most cases, the serially diluted peptides were added to the upper compartment of the chemotaxis chamber. The chamber was incubated at 37°C in a humidified atmosphere of 5% CO2 for 4 hours.\nAfter incubation, the cells were gently removed from the top of the filter with a pipette, 20 µl of 20 mM EDTA in PBS was added into each top well, and the mixture was incubated for 20 minutes at 4°C. The filter was then carefully flushed with media using a gentle flow, and removed. […] The curve was based on a two-fold dilution series of THP-1 cells (top standard 100,000 cells in 29 µl). […] The media was carefully aspirated from each well, and the converted dye was solubilized by 20 µl of DMSO.\nRepresentative chemokines included […] (\"CC\"), MIP-1α and RANTES, and two alpha-chemokines (\"CXC\"), IL-8 and SDF-1α. Additionally, to determine the specificity ofpeptide 3(1-12)[MCP-1]\nThe number of pluses is a qualitative indicating of the activity of each peptide in each assay."}}, "note": "Non-standard residues stand in square brackets, D forms with d. Residues, ends and D or L forms follow the SMILES beside them. No end group written: not given here.", "data": [{"molecule": "DYFETSSQCSKPGV [Pep2[MIP1α]]", "values": [{"measurement": "DARC binding (µM)", "setting": "[1]", "result": "ns"}]}, {"molecule": "CSKPGV [CSKPGV]", "values": [{"measurement": "DARC binding (µM)", "setting": "[1]", "result": "ns"}]}, {"molecule": "CC(C)[C@@H](N)C(=O)NCC(=O)N1CCC[C@@H]1C(=O)N[C@H](CCCCN)C(=O)N[C@H](CO)C(=O)N[C@H](CS)C(=O)N[C@H](CCC(N)=O)C(=O)N[C@H](CO)C(=O)N[C@H](CO)C(=O)N[C@@H](C(=O)N[C@H](CCC(=O)O)C(=O)N[C@H](Cc1ccccc1)C(=O)N[C@H](Cc1ccc(O)cc1)C(=O)N[C@H](CC(=O)O)C(=O)O)[C@H](C)O", "note": "[vgpkscqsstefyd] (H-[dV]G[dP][dK][dS][dC][dQ][dS][dS][dT][dE][dF][dY][dD]-OH)", "values": [{"measurement": "DARC binding (µM)", "setting": "[1]", "result": "ns"}]}, {"molecule": "CC[C@@H](C)[C@@H](NC(=O)[C@H](NC(=O)[C@@H](CO)NC(=O)[C@@H](CO)NC(=O)[C@@H](CCCCN)NC(=O)[C@@H](CS)NC(=O)[C@H]1CCCN1C(=O)[C@@H](CCCCN)NC(=O)[C@@H](CCC(=O)O)NC(=O)[C@@H](C)NC(=O)[C@H](N)C(C)C)[C@H](C)O)C(=O)N[C@H](CCCNC(=N)N)C(=O)N[C@H](CCCNC(=N)N)C(=O)N[C@H](Cc1ccc(O)cc1)C(=O)N[C@H](CO)C(=O)O", "note": "[LRD peptide 2(1-15)[MCP-1], Vaekpcksstirrys] (H-[dV][dA][dE][dK][dP][dC][dK][dS][dS][dT][dI][dR][dR][dY][dS]-OH; N-terminus and C-terminus assumed)", "values": [{"measurement": "ED50 (µM) versus MCP-1", "setting": "[2]; inhibition of THP-1 migration, n.s./ns = not statistically significant", "result": "ns"}, {"measurement": "ED50 (µM) versus MIP1α", "setting": "[3]", "result": "ns"}, {"measurement": "ED50 (µM) versus SDF-1α", "setting": "[4]", "result": "ns"}, {"measurement": "gp120 ED-50", "setting": "[5]", "result": 3, "unit": "µM"}]}, {"molecule": "DYFETSSQC", "values": [{"measurement": "DARC binding (µM)", "setting": "[1]", "result": "ns"}]}, {"molecule": "SYRRI [SYRRI]", "values": [{"measurement": "DARC binding (µM)", "setting": "[1]", "result": "ns"}]}, {"molecule": "CLDPKQKWIQC [unlabeled peptide, non-labeled version of the biotinylated peptide]", "values": [{"measurement": "ED50 for inhibition of MCP-1 induced migration", "setting": "[2]; MCP-1 at 100 ng/ml in RPMI 1640 + 10% FCS, 4 hours, 5 µm filter", "result": "about 9 µM"}]}, {"molecule": "CQVWKQKPDAC [LRD-Cys13Leu4Ile11pep3[3-12]]", "values": [{"measurement": "Average ED50", "setting": "[6]", "result": 1000, "unit": "nM"}, {"measurement": "Duffy selectivity / DARC specificity ratio", "setting": "[1]; estimated ka for binding to red blood cells divided by average inhibitory ED50", "result": 4.59}]}, {"molecule": "TSSKC [TSSKC]", "values": [{"measurement": "DARC binding (µM)", "setting": "[1]", "result": "ns"}]}]}
